From patent US4551547A, “Biocidal 2-aryl-1, 3-cyclopentanedione enol ester compounds” (Union Carbide Corporation, priority 1983, dated 1985)
Converted amounts (≈) assume the structure as drawn.

Columns and labels:
Tomato = test: Post-emergent herbicidal test, tomato; type: in vivo; set-up: key: 1: no perceptible injury; 2: intermediate degrees of injury; 3: intermediate degrees of injury; 4: intermediate degrees of injury; 5: the plant was dead; details: 2500 parts per million, after ten days; for Post-emergent Herbicidal, Tomato: Table II; for Post Emergent Herbicidal, Tomato: Table III
Protocol: (§1) Suspensions of the test compounds were prepared by dissolving one gram of compound in 50 milliliters of acetone in which had been dissolved 0.1 gram (10 percent of the weight of compound) of an alkylphenoxyethanol sufactant, as an emulsifying or dispersing agent. The resulting solution was mixed into 160 milliliters of water to give roughly 200 milliliters of a suspension containing the compound in finely divided form. The thus prepared stock suspension contained 0.5 percent by weight of compound. The test concentrations employed in the tests described below were obtained by diluting the stock suspension with water. The test procedures were as follows:
(§2) Experiments were also conducted to determine the phytotoxicity of representative compositions with respect to healthy fresh plants. Solutions of the compounds were prepared as described above to provide a concentration of 2500 parts per million of the test compound. The test plants were sprayed in accordance with the procedure described above for the Mite Foliage Spray Test so as to deliver approximately 100 milliliters of test solutions to the leaves of each plant tested. The sprayed plants and controls were set aside for approximately one hour to allow the solutions to dry and were then placed in the greenhouse. After ten days the plants were visually inspected to determine the extent of foliage injury. A rating of 1 indicates no perceptible injury; 5 indicates the plant was dead and ratings of 2, 3 and 4 indicate intermediate degrees of injury based upon the number and extent to which leaves were injured.

Corn = test: Post-emergent herbicidal test, corn; type: in vivo; set-up: key: 1: no perceptible injury; 2: intermediate degrees of injury; 3: intermediate degrees of injury; 4: intermediate degrees of injury; 5: the plant was dead; details: 2500 parts per million, after ten days; for Post-emergent Herbicidal, Corn: Table II; for Post Emergent Herbicidal, Corn: Table III
Protocol: as §1, §2

Cotton = test: Post-emergent herbicidal test, cotton; type: in vivo; set-up: key: 1: no perceptible injury; 2: intermediate degrees of injury; 3: intermediate degrees of injury; 4: intermediate degrees of injury; 5: the plant was dead; details: 2500 parts per million, after ten days; for Post-emergent Herbicidal, Cotton: Table II; for Post Emergent Herbicidal, Cotton: Table III
Protocol: as §1, §2

Perennial rye grass = test: Preliminary herbicide seed germination test (pre-emergent), perennial rye grass; type: in vivo, Solium perenne; set-up: key: 5: no seedling emerged; 4: few seedlings emerged and/or very severe stunting; 3: moderate reduction in stand and/or moderate stunting.; 2: very slight reduction in stand and/or slight stunting; 1: no injury, seedlings appear no different with respect to stand or growth than untreated controls; details: ten to twelve days after application
Protocol: as §1
(§3) The following seeds were used in this test:
Perennial rye grass--Solium perenne
(§4) Two […] mixtures were prepared as follows:
(§5) Each of the above mixtures was rolled separately in 5 gallon containers for approximately one-half hour on ball mill to insure uniform mixing of seeds and soil. For each compound four 3-inch pots were filled with soil to within 11/2 inches of top of pots. To two of these pots were added 70 cc. of Mixture I. To the remaining 2 pots were added 70 cc. of Mixture II. The seed-soil mixture was tamped firmly, and the pots were removed to the greenhouse and watered lightly. About 2 hours after planting, 25 milliliters of the test formulation were added to one pot containing Mixture I and one pot containing Mixture II. An equal volume of a water solution containing acetone and an emulsifier in the same concentration as the herbicidal mixture but without the candidate herbicide was also added to each of the soil-seed mixtures. These pots are used as check or control units. The test compounds were formulated by diluting the stock suspension with water to obtain the desired concentration of the compound in parts per million of the final formulation. Each compound was tested at the same concentration. […] Ratings were made according to the following designations: […]

Mustard = test: Preliminary herbicide seed germination test (pre-emergent), mustard; type: in vivo, Brassica pincea var. foliosa (Florida broadleaf); set-up: key: 5: no seedling emerged; 4: few seedlings emerged and/or very severe stunting; 3: moderate reduction in stand and/or moderate stunting.; 2: very slight reduction in stand and/or slight stunting; 1: no injury, seedlings appear no different with respect to stand or growth than untreated controls; details: ten to twelve days after application
Protocol: as §1, §3
Mustard--Brassica pincea var. foliosa (Florida broadleaf)
as §4, §5

Soybean = test: Post-emergent herbicidal test, soybean; type: in vivo; set-up: key: 1: no perceptible injury; 2: intermediate degrees of injury; 3: intermediate degrees of injury; 4: intermediate degrees of injury; 5: the plant was dead; details: 2500 parts per million, after ten days; for Post-emergent Herbicidal, Soybean: Table II; for Post Emergent Herbicidal, Soybean: Table III
Protocol: as §1, §2

Crabgrass = test: Preliminary herbicide seed germination test (pre-emergent), crabgrass; type: in vivo, Digitaria sanguinalis; set-up: key: 5: no seedling emerged; 4: few seedlings emerged and/or very severe stunting; 3: moderate reduction in stand and/or moderate stunting.; 2: very slight reduction in stand and/or slight stunting; 1: no injury, seedlings appear no different with respect to stand or growth than untreated controls; details: ten to twelve days after application
Protocol: as §1, §3
Crabgrass--Digitaria sanguinalis
as §4, §5

[1] = test system: two-spotted mite (adults and nymphal stages); test: Mite Foliage Spray Test (adults and nymphs); type: in vivo, Tetranychus urticae (Koch); set-up: key to Miticidal, Adult: A: Excellent Control; B: Partial Control; No Control; details: for Miticidal, Adult: Table II, mortality count after four days; for LC50: Tetranychus urticae, foliar, Table III, ppm required for a 50 percent kill of mites, read-out: Miticidal LD50, Adult
Protocol: Suspensions of the test compounds were prepared by dissolving one gram of compound in 50 milliliters of acetone in which had been dissolved 0.1 gram (10 percent of the weight of compound) of an alkylphenoxyethanol sufactant, as an emulsifying or dispersing agent. The resulting solution was mixed into 160 milliliters of water to give roughly 200 milliliters of a suspension containing the compound in finely divided form. The thus prepared stock suspension contained 0.5 percent by weight of compound. The test concentrations employed in the tests described below were obtained by diluting the stock suspension with water. The test procedures were as follows: Adults and nymphal stages of the two-spotted mite (Tetranychus urticae (Koch)), reared on Tender-green beam plants at 80±5° F. and 50±5 percent relative humidity, were the tests organisms. Infested leaves from a stock culture were placed of the primary leaves of two bean plants six to eight inches in height, growing in a two-and-a-half inch clay pot. 150-200 Mites, a sufficient number for testing, transferred from the excised leaves to the fresh plants in a period of twenty-four hours. Following the twenty-four hour transfer period, the excised leaves were removed from the infested plants. The test compounds were formulated by diluting the stock suspension with water to provide suspensions containing the desired amount of test compound per million parts of final formulation. The potted plants (one pot per compound) were placed on a revolving turntable and sprayed with 100-110 milliliters of tests compound formulation by use of a DeVilbis spray gun set at 40 psi, air pressure. This application, which lasted 30 seconds, was sufficient to wet the plants to run-off. As a control, 100-110 milliliters of a water solution containing acetone and emulsifier in the same concentrations as the test compound formulation, but containing no test compound, were also sprayed on infested plants. The sprayed plants were held at 80±5° F. and 50±5 percent relative humidity for four days, after which, a mortality count of motile forms was made on the leaves of the test plants. Any individual which was capable of locomotion upon prodding was considered living. In these tests the pesticidal activity of the compounds against mites and mite eggs was rated as follows: Tests were conducted in accordance with the procedures given at pages 17 to 21 supra. The results are expressed in the same manner as used in Table II, except with respect to miticidal activity. For mite adult and mite egg comparison purposes, results are given in parts per million (ppm) required for a 50 percent kill of mites or eggs, respectively.

Row | SMILES | Post-emergent Herbicidal, Tomato (Tomato) | Post-emergent Herbicidal, Corn (Corn) | Post-emergent Herbicidal, Cotton (Cotton) | Pre-emergent Herbicidal, Rye (Perennial rye grass; Table II) | Pre-emergent Herbicidal, Mustard (Mustard; Table II) | Post-emergent Herbicidal, Soybean (Soybean) | Pre-emergent Herbicidal, Crabgrass (Crabgrass; Table II) | Miticidal, Adult [1] | Post Emergent Herbicidal, Tomato (Tomato) | Post Emergent Herbicidal, Corn (Corn) | Post Emergent Herbicidal, Cotton (Cotton) | Pre-emergent Herbicidal, Rye (Perennial rye grass; Table III) | Pre-emergent Herbicidal, Mustard (Mustard; Table III) | Post Emergent Herbicidal, Soybean (Soybean) | Pre-emergent Herbicidal, Crabgrass (Crabgrass; Table III) | LC50 [1] [µg/mL]
1 | CCCCCCCCCCCCCCCC(=O)OC1=C(c2ccccc2C)C(=O)C2CCCCC12 (centres unmarked) [Compound 24] | 1 | 2 | 2 | 4 | 3 | 2 | 3 | A |  |  |  |  |  |  |  | 
2 | CCCCC(CC)C(=O)OC1=C(c2cc(C)ccc2C)C(=O)C(C)C1 (centres unmarked) [Compound 17] | 1 | 3 | 3 | 3 | 1 | 3 | 1 | A |  |  |  |  |  |  |  | 
3 | Cc1ccc(C)c(C2=C(OC(=O)C(C)(C)C)C3CCCCC3C2=O)c1 (centres unmarked) [Compound 31] | 1 | 2 | 1 | 1 | 1 | 2 | 1 | A |  |  |  |  |  |  |  | 
4 | CCCCCCCCCCCCCCCC(=O)OC1=C(c2ccccc2C)C(=O)CC1 [Compound 8] | 1 | 3 | 2 | 2 | 1 | 3 | 2 | A |  |  |  |  |  |  |  | 
5 | CCCCCCCCCCCCCCCC(=O)OC1=C(c2ccccc2C)C(=O)C2CCCCC12 (centres unmarked) [drawing 17] |  |  |  |  |  |  |  |  | 1 | 2 | 2 | 4 | 3 | 2 | 3 | 20 (≈ 41.6 µM)
6 | CCCCCCCCCCCCCCCC(=O)OC1=C(c2cc(C)ccc2C)C(=O)C2CCCCC12 (centres unmarked) [Compound 33] | 1 | 1 | 1 | 1 | 1 | 1 | 1 | A |  |  |  |  |  |  |  | 
7 | CCCCCCCCCC(=O)OC1=C(c2ccccc2C)C(=O)C2CCCCC12 (centres unmarked) [drawing 15] |  |  |  |  |  |  |  |  | 1 | 5 | 3 | 5 | 3 | 3 | 3 | 2 (≈ 5.04 µM)
